Assay results published in US20240307526A1, “COMPOSITIONS COMPRISING HYDROXYETHYL-CAPPED CATIONIC PEPTOIDS” (priority 2021, published 2024).

Assay: Efficacy and toxicology studies (Table 9), intramuscular in rat
Details: mouse efficacy and rat toxicology studies; formulated in DV-140-F2

In the case of `CCCCCCCCCCN(CC(N)=O)C(=O)CN(CCCCCCCCCC)C(=O)CN(CCCCCCCCCC)C(=O)CN(CCCCCCCCCC)C(=O)CNCCO` [Compound 140], the tolerability is reported as “well-tolerated”.
